Paper PMC6254336, “Structural and functional characterization of IdiA/FutA (Tery_3377), an iron-binding protein from the ocean diazotroph Trichodesmium erythraeum” (The Journal of Biological Chemistry, 2018)

Molecular target: T1, Tery_3377 (IdiA/FutA) (Trichodesmium erythraeum, UniProt Q10Z45)
T1 construct: mature protein, predicted signal peptide (residues 1-31) removed, C-terminal His6 tag, pET21a(+), E. coli BL21(DE3); two monomers per asymmetric unit
Assay: X-ray crystal structure, […] Å
Conditions: two citrates bound in the substrate-binding cleft together with one Fe3+ that they coordinate, about 7 Å from the empty iron site; protein citrate-treated before crystallisation; carboxylic acids mix

T1 sequence (Q10Z45 entry or part of it): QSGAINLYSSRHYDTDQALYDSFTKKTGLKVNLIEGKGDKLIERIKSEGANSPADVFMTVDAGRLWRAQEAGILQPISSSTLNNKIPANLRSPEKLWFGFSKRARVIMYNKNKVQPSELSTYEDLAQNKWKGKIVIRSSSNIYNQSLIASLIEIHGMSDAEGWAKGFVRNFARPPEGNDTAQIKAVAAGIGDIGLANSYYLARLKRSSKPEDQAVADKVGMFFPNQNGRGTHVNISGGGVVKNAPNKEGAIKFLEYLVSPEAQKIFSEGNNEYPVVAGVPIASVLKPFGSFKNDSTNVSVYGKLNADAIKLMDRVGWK

## O=C(O)CC(O)(CC(=O)O)C(=O)O [citrate]
  X-ray crystal structure, 1.2 Å: traps the citrate molecule with bound iron in the substrate-binding cleft
